Experimental data reported in patent publication US10976307B2, “Whole cell assays and methods” (Celcuity Inc., priority 2012, dated 2021).

Columns and labels:
Assay type in all cases: cell-based, human
[1] = test system: breast cancer patient cells; assay: CELx Pathway Shutdown single drug test (Example 4), impedance biosensor CReMS; conditions: one patient breast cancer cell sample expected to be a responder
Experimental: Between 6,000-12,000 cells in each well were seeded onto the impedance microplate containing 120 uL standard media with serum. The solution was replaced with media containing no serum to synchronize the cells with respect to physiologic state and pathway stimulation. Twenty microliters of drugs were added to the no-serum media two hours in advance of pathway stimulation. Pathway stimulation was initiated using EC80 doses of receptor ligand (typically 6 nM in 20 uL). The CReMS recording of physiologic change was maintained continuously for several hours from buffer exchange through complete cellular response to the pathway stimulation. The pathway test was performed at 37° C., 5% CO2 and at a relative humidity 75%.
The physiologic change of the cells and drugs tested was measured with an impedance biosensor CReMS and the summary output from the CReMS is recorded in FIG. 4. The correlation between these CELx test results and the third party clinical reference is recorded in FIG. 7.
In those experiments involving anti-proliferative drugs (capecitabine, docetaxel, fluorouracil, paclitaxel, topotecan, cisplatin, and oxiliplatin), the procedures described in Example 2 were utilized. In those experiments involving a combination of drugs, the procedures described in Example 3 were utilized. The list of patient cells and the drug tested with the cells is characterized in FIG. 4.

[2] = test system: Patient C2 colon cancer cells; assay: CELx Combination test, impedance biosensor CReMS; conditions: Patient C2 cells (printed Patient 2), single drug
Experimental: The physiologic change of the C1 and C2 cells during the test was measured with an impedance biosensor CReMS and the output from the CReMS is recorded in FIGS. 3A and 3B.
Between 6,000-12,000 cells in each well were seeded into the impedance microplate containing 120 uL settling media with serum. The solution was replaced with media containing no serum to synchronize the cells with respect to physiologic state. […] The CReMS recording of physiologic change was maintained continuously from when the cells were first seeded on the microplate through complete cellular response, which was between 48-72 hours. The test was performed at 37° C., 5% CO2 and at 75% relative humidity.

[3] = test system: Patient B1 HER2 overexpressing breast cancer cells; assay: CELx Pathway Shutdown test, impedance biosensor CReMS, EGF stimulation; conditions: drug added two hours before EGF pathway stimulation, compared to stimulation with no drug
Text: The change in impedance for a particular well is proportional to the number of cells and type of attachment the cells have with the impedance microplate. Changes in impedance indicate a response to perturbation of these small cell populations.
Prior to addition to the impedance microplate, the cells were removed from their growth container with versene, counted, and re-suspended in media without serum or other growth factors.
The solution was replaced with media containing no serum to synchronize the cells with respect to physiologic state and pathway stimulation. Twenty microliters of drugs were added to the no-serum media two hours in advance of pathway stimulation.

[4] = test system: Patient B1 breast cancer cells; assay: CELx Anti-Proliferative test, impedance biosensor CReMS; conditions: continuous recording throughout the test period, untreated control cells
Experimental: (§1) A CELx Anti-Proliferative test was performed using cells from two breast cancer patients (Patients B1 and B2) and the drug Paclitaxel. The physiologic change of the Bland B2 cells during the test was measured with an impedance biosensor CReMS and the output from the CReMS is recorded in FIGS. 2A and 2B. The comparison of the CELx test results and the third party clinical reference is recorded in FIG. 2C.
(§2) The CReMS, microplate, reagents, and buffers used in Example 1 are the same as those employed in Example 2, except for the therapeutic agent tested. In Example 2, the therapeutic agent, paclitaxel, was tested. Paclitaxel was purchased from Selleck Chemicals (TX, USA).
(§3) Between 6,000-12,000 cells in each well were seeded onto the impedance microplate containing 120 uL settling media with serum. Forty microliters of the drug paclitaxel were added to one set each of the B1 and B2 cells; another control set of B1 and B2 cells received no drug. The CReMS recording of physiologic change was maintained continuously from when the cells were first seeded on the microplate through complete cellular response, which was between 48-72 hours. The test was performed at 37° C., 5% CO2 and at 75% relative humidity.

[5] = test system: Patient B2 breast cancer cells; assay: as above; conditions: continuous recording
Experimental: as §1, §2, §3

## COc1cc2ncnc(Nc3ccc(F)c(Cl)c3)c2cc1OCCCN1CCOCC1 [gelfitinib, gefitinib]
[1]
  response in the CReMS testing: did not show a response

## CCc1c2c(nc3ccc(OC(=O)N4CCC(N5CCCCC5)CC4)cc13)-c1cc3c(c(=O)n1C2)COC(=O)[C@]3(O)CC [irinotecan, Irinotecan]
[2]
  responsiveness to each individual drug: responsive

## CS(=O)(=O)CCNCc1ccc(-c2ccc3ncnc(Nc4ccc(OCc5cccc(F)c5)c(Cl)c4)c3c2)o1 [lapatinib, Lapatinib]
[3]
  change (decrease) of cell index of the test cells after drug added: over 50%

## CC(=O)O[C@H]1C(=O)[C@@]2(C)[C@H]([C@H](OC(=O)c3ccccc3)[C@]3(O)C[C@H](OC(=O)[C@H](O)[C@@H](NC(=O)c4ccccc4)c4ccccc4)C(C)=C1C3(C)C)[C@]1(OC(C)=O)CO[C@@H]1C[C@@H]2O [Paclitaxel]
[4]
  responsiveness: decrease in CReM output compared to control cells: immediate and continuous responsiveness
[5]
  time after which CReM output reverses (test cells begin proliferating, no longer responsive): roughly 24 hours
[5]; untreated control cells
  responsiveness: decrease in CReM output compared to control cells: initial responsiveness
